Several values for one entry are separate records, joined by “and”; a condition that tells them apart may be missing. Identical values can stand only once.
What was measured:
Format in all cases: in vivo, human
[1] = system: Chinese patients with T2D; experiment: Mixed-meal tolerance test (MTT): insulin
Protocol: (§1) HbA1c (2200101, Bio-Rad, USA), blood glucose (05168791190, Roche Diagnostics, Germany), insulin (12017547122, Roche Diagnostics, Germany), C peptide (03184897190, Roche Diagnostics, Germany), total GLP-1 (GLP-1 [7–36] amide and its metabolite, GLP-1 [9–36] amide, 10-1278-01, Mercodia AB, Sweden) and OXM (AL-139, AnshLabs, USA) tests were performed according to the manufactures’ instruction manuals in a central laboratory (KingMed Diagnostics, Guangzhou, China). HbA1c was measured using a Bio-rad D-100 Haemoglobin Testing System (Bio-rad). Blood glucose was measured using a Roche Cobas c702 analyser (Roche Diagnostics). Insulin and C peptide were measured using a Roche […] analyser (Roche Diagnostics). GLP-1 and OXM were measured using a Tecan Infinite M Plex microplate reader (TECAN).
(§2) Standard non-compartmental pharmacokinetics methods were used to analyze IBI362 plasma concentration data using Pkanalix 2020R1 (Lixoft, Antony, France). Secondary efficacy outcomes included change from baseline to week 12 in HbA1c, fasting plasma glucose (FPG), fasting insulin levels, change from baseline to week 12 in post-mixed-meal tolerance test (post-MTT) glucose, insulin, C peptide, GLP-1 and OXM levels, as well as seven-point self-measured blood glucose (SMBG) profile. […]
(§3) 3. Standard meal test (MTT) collection measures included: insulin, C-peptide, plasma glucose, glucagon, endogenous OXM, and endogenous GLP-1. The sampling points include: fasting, 30 min, 1h, 2h, 3h and 4h.
(§4) A total of 9 mL blood will be collected from each blood collection point. See the manual of the central laboratory for the detailed operation process. Fasting state refers to fasting for 10 hours. [ The standard meal is
(§5) instant noodles. The master Kang roast beef noodles (bucket noodles) purchased by the sponsor in a unified manner are removed from the oil bag. The noodles are soaked in boiled water and then removed. The seasoning
(§6) bag is added and mixed well. The time is counted from the first bite of eating. The noodles are eaten within 10 minutes, and 200 mL of water is drunk; or the instant noodles are directly opened with 200 mL of boiled
(§7) water to ensure that the noodles are eaten and the water or soup is drunk]. Visit days when MTT test is performed: 1 day prior to Cycle 1 administration, Day 80 (D80). […]
(§8) ● Test by central laboratory

[2] = system: Chinese patients with T2D; experiment: Mixed-meal tolerance test (MTT) and fasting: OXM; settings: week 12; patients receiving IBI362
Protocol: as §1, §2
bag is added and mixed well. The time is counted from the first bite of eating. […]

[3] = system: Chinese patients with T2D; experiment: Mixed-meal tolerance test (MTT): plasma glucose and glucose AUC0-4 h; settings: for Percent change from baseline to week 12 in post-MTT glucose AUC0-4 h, LS mean: MMRM
Protocol: as §1
Standard non-compartmental pharmacokinetics methods were used to analyze IBI362 plasma concentration data using Pkanalix 2020R1 (Lixoft, Antony, France). Secondary efficacy outcomes included change from baseline to week 12 in HbA1c, fasting plasma glucose (FPG), fasting insulin levels, change from baseline to week 12 in post-mixed-meal tolerance test (post-MTT) glucose, insulin, C peptide, GLP-1 and OXM levels, as well as seven-point self-measured blood glucose (SMBG) profile.
The analyses for change from baseline in HbA1c, FPG, post-MTT glucose AUC0–4 h and body weight were performed using the mixed-effect model for repeated measures (MMRM) with least-squares means and standard error provided. The MMRM included the corresponding baseline value, treatment, visit and treatment-by-visit as fixed effects and patient as a random effect. Mean change or mean percent change from baseline were analysed using a restricted maximum likelihood (REML)‐based repeated measures approach in combination with the Newton Raphson Algorithm. The fix effect of visit was fitted as a repeated effect and an unstructured covariance matrix was used. In case of non-converge, matrix like Variance Components and Compound Symmetry will be tested in a subsequent order until model‐convergence is achieved. The Kenward-Roger degree of freedom was used in estimating fixed effects. No missing data imputation was conducted. For HbA1c, FPG and body weight, point estimate of treatment difference versus placebo and 90% CI were provided for each IBI362 dose group and the dulaglutide group, with nominal p values. […]
as §3, §4, §5, §6, §7, §8

Waist circumference = settings: for Change from baseline to week 12 in waist circumference, individual: single patients
From the text: (§9) Exploratory outcomes included change from baseline in body weight, waist circumference, body-mass index (BMI) and change in homeostatic model assessment of β-cell function (HOMA-β) and insulin resistance (HOMA-IR).

[4] = system: Chinese patients with T2D; experiment: Lipids (total cholesterol, LDL cholesterol, triglycerides); settings: mean
Protocol: Fig. S8: Change from baseline in lipids levels at week 12.
Data are plotted as means +/- SD. IBI362 3.0 mg n = 7; IBI362 4.5 mg n = 5; IBI362 6.0 mg n = 8; Pooled placebo n = 10; Dulaglutide n = 6. CFB = change from baseline; LDL = low density lipoprotein; SD = standard deviation. Source data are provided as a Source Data file.
Total cholesterol LDL cholesterol Triglycerides
CFB in lipids at week 12 (mmol/L),
(1 picture or pasted object on this page, not shown here) […]
Table 4 Routine laboratory safety assessments […]
Lipids Total cholesterol (TC), triglyceride (TG), high-density lipoprotein cholesterol (HDL-C), and low-density lipoprotein cholesterol (LDL-C). […]

Body-mass index (BMI) = settings: mean
From the text: as §9

[5] = week 12, 0 min, 3.0 mg cohort, n=7
[6] = week 12, 0 min, 4.5 mg cohort, n=5
[7] = week 12, 0 min, 6.0 mg cohort, n=8
[8] = week 12, 30 min, 3.0 mg cohort, n=7
[9] = week 12, 30 min, 4.5 mg cohort, n=5
[10] = week 12, 30 min, 6.0 mg cohort, n=8
[11] = week 12, 60 min, 3.0 mg cohort, n=7
[12] = week 12, 60 min, 4.5 mg cohort, n=5
[13] = week 12, 60 min, 6.0 mg cohort, n=8
[14] = week 12, 120 min, 3.0 mg cohort, n=7
[15] = week 12, 120 min, 4.5 mg cohort, n=5
[16] = week 12, 120 min, 6.0 mg cohort, n=8
[17] = week 12, 180 min, 3.0 mg cohort, n=7
[18] = week 12, 180 min, 4.5 mg cohort, n=5
[19] = week 12, 180 min, 6.0 mg cohort, n=8
[20] = week 12, 240 min, 3.0 mg cohort, n=7
[21] = week 12, 240 min, 4.5 mg cohort, n=5
[22] = week 12, 240 min, 6.0 mg cohort, n=8
[23] = week 12, 0 min, 1.5 mg once weekly, n=6
[24] = week 12, 30 min, 1.5 mg once weekly, n=6
[25] = week 12, 60 min, 1.5 mg once weekly, n=6
[26] = week 12, 120 min, 1.5 mg once weekly, n=6
[27] = week 12, 180 min, 1.5 mg once weekly, n=6
[28] = week 12, 240 min, 1.5 mg once weekly, n=6

CC(C)C[C@H](NC(=O)[C@H](CC(C)C)NC(=O)[C@H](Cc1c[nH]c2ccccc12)NC(=O)[C@H](CCC(=O)O)NC(=O)[C@@H](NC(=O)[C@H](Cc1ccccc1)NC(=O)[C@H](CCC(=O)O)NC(=O)[C@H](CCCCNC(=O)COCCOCCNC(=O)COCCOCCNC(=O)CC[C@H](NC(=O)CCCCCCCCCCCCCCCCCCC(=O)O)C(=O)O)NC(=O)[C@H](C)NC(=O)[C@H](CCCCN)NC(=O)[C@H](CCCCN)NC(=O)[C@H](CCC(=O)O)NC(=O)[C@H](CC(=O)O)NC(=O)[C@H](CC(C)C)NC(=O)[C@H](Cc1ccc(O)cc1)NC(=O)[C@H](CCCCN)NC(=O)[C@H](CO)NC(=O)[C@H](Cc1ccc(O)cc1)NC(=O)[C@H](CC(=O)O)NC(=O)[C@H](CO)NC(=O)[C@@H](NC(=O)[C@H](Cc1ccccc1)NC(=O)[C@@H](NC(=O)CNC(=O)[C@H](CCC(N)=O)NC(=O)C(C)(C)NC(=O)[C@@H](N)Cc1c[nH]cn1)[C@@H](C)O)[C@@H](C)O)C(C)C)C(=O)N[C@@H](CCC(=O)O)C(=O)NCC(=O)NCC(=O)N1CCC[C@H]1C(=O)N[C@@H](CO)C(=O)N[C@@H](CO)C(=O)NCC(N)=O [IBI362]
Insulin during MTT, mean [1, 5]: 9.22 μU/mL
Insulin during MTT, mean [1, 6]: 13.41 μU/mL
Insulin during MTT, mean [1, 7]: 13.25 μU/mL
Insulin during MTT, mean [1, 8]: 17.47 μU/mL
Insulin during MTT, mean [1, 9]: 22.16 μU/mL
Insulin during MTT, mean [1, 10]: 22.08 μU/mL
Insulin during MTT, mean [1, 11]: 34.23 μU/mL
Insulin during MTT, mean [1, 12]: 41.02 μU/mL
Insulin during MTT, mean [1, 13]: 41.49 μU/mL
Insulin during MTT, mean [1, 14]: 57.20 μU/mL
Insulin during MTT, mean [1, 15]: 45.65 μU/mL
Insulin during MTT, mean [1, 16]: 64.69 μU/mL
Insulin during MTT, mean [1, 17]: 39.93 μU/mL
Insulin during MTT, mean [1, 18]: 50.30 μU/mL
Insulin during MTT, mean [1, 19]: 46.96 μU/mL
Insulin during MTT, mean [1, 20]: 23.01 μU/mL
Insulin during MTT, mean [1, 21]: 25.01 μU/mL
Insulin during MTT, mean [1, 22]: 24.25 μU/mL
post-MTT OXM excursion [2]: markedly suppressed
Percent change from baseline to week 12 in post-MTT glucose AUC0-4 h, LS mean ([3]; 3.0 mg cohort, n=8): −37.0% and -36.99%
Percent change from baseline to week 12 in post-MTT glucose AUC0-4 h, LS mean ([3]; 4.5 mg cohort, n=8): −38.9% and -38.89%
Percent change from baseline to week 12 in post-MTT glucose AUC0-4 h, LS mean ([3]; 6.0 mg cohort, n=8): −43.9% and -43.88%
Glucose during MTT, mean [3, 5]: 7.91 mmol/L
Glucose during MTT, mean [3, 6]: 7.75 mmol/L
Glucose during MTT, mean [3, 7]: 7.11 mmol/L
Glucose during MTT, mean [3, 8]: 10.06 mmol/L
Glucose during MTT, mean [3, 9]: 9.84 mmol/L
Glucose during MTT, mean [3, 10]: 9.53 mmol/L
Glucose during MTT, mean [3, 11]: 13.39 mmol/L
Glucose during MTT, mean [3, 12]: 11.82 mmol/L
Glucose during MTT, mean [3, 13]: 11.83 mmol/L
Glucose during MTT, mean [3, 14]: 11.24 mmol/L
Glucose during MTT, mean [3, 15]: 10.28 mmol/L
Glucose during MTT, mean [3, 16]: 9.52 mmol/L
Glucose during MTT, mean [3, 17]: 8.73 mmol/L
Glucose during MTT, mean [3, 18]: 8.34 mmol/L
Glucose during MTT, mean [3, 19]: 7.51 mmol/L
Glucose during MTT, mean [3, 20]: 7.23 mmol/L
Glucose during MTT, mean [3, 21]: 7.08 mmol/L
Glucose during MTT, mean [3, 22]: 6.63 mmol/L
Change from baseline to week 12 in waist circumference, mean (Waist circumference; 3.0 mg cohort, n=7): -0.5 cm
Change from baseline to week 12 in waist circumference, mean (Waist circumference; 4.5 mg cohort, n=5): -3.0 cm
Change from baseline to week 12 in waist circumference, individual (Waist circumference; 3.0 mg cohort, n=7): -4.4 cm and -0.2 cm and -4.0 cm and -1.0 cm and 3.7 cm and 3.5 cm
Change from baseline to week 12 in waist circumference, individual (Waist circumference; 4.5 mg cohort, n=5): -4.5 cm and -1.8 cm and -2.1 cm and -2.2 cm and -4.2 cm
Change from baseline to week 12 in waist circumference, individual (Waist circumference; 6.0 mg cohort, n=8): -4.7 cm and -2.5 cm and -1.0 cm and -7.5 cm and -5.1 cm and -13.3 cm and -1.5 cm and -2.9 cm
Change from baseline to week 12 in LDL cholesterol ([4]; IBI362 3.0 mg): -0.33 mmol/L
Change from baseline to week 12 in total cholesterol ([4]; IBI362 3.0 mg): -0.71 mmol/L
Change from baseline to week 12 in triglycerides ([4]; IBI362 3.0 mg): -0.83 mmol/L
Change from baseline to week 12 in LDL cholesterol ([4]; IBI362 4.5 mg): -1.15 mmol/L
Change from baseline to week 12 in total cholesterol ([4]; IBI362 4.5 mg): -1.68 mmol/L
Change from baseline to week 12 in triglycerides ([4]; IBI362 4.5 mg): -0.23 mmol/L
Change from baseline to week 12 in LDL cholesterol ([4]; IBI362 6.0 mg): -0.90 mmol/L
Change from baseline to week 12 in total cholesterol ([4]; IBI362 6.0 mg): -1.17 mmol/L
Change from baseline to week 12 in triglycerides ([4]; IBI362 6.0 mg): -0.66 mmol/L
Change from baseline to week 12 in BMI (Body-mass index (BMI); IBI362 3.0 mg): -0.38 kg/m2
Change from baseline to week 12 in BMI (Body-mass index (BMI); IBI362 4.5 mg): -1.25 kg/m2
Change from baseline to week 12 in BMI (Body-mass index (BMI); IBI362 6.0 mg): -1.36 kg/m2

Dulaglutide: open-label active reference, subcutaneously once weekly at a fixed dose of 1.5 mg [reference compound]
Insulin during MTT, mean [1, 23]: 13.40 μU/mL
Insulin during MTT, mean [1, 24]: 30.21 μU/mL
Insulin during MTT, mean [1, 25]: 53.77 μU/mL
Insulin during MTT, mean [1, 26]: 63.25 μU/mL
Insulin during MTT, mean [1, 27]: 30.85 μU/mL
Insulin during MTT, mean [1, 28]: 21.56 μU/mL
Percent change from baseline to week 12 in post-MTT glucose AUC0-4 h, LS mean ([3]; 1.5 mg once weekly, n=6): -41.70%
Glucose during MTT, mean [3, 23]: 7.18 mmol/L
Glucose during MTT, mean [3, 24]: 9.32 mmol/L
Glucose during MTT, mean [3, 25]: 11.86 mmol/L
Glucose during MTT, mean [3, 26]: 9.62 mmol/L
Glucose during MTT, mean [3, 27]: 7.11 mmol/L
Glucose during MTT, mean [3, 28]: 6.79 mmol/L
Change from baseline to week 12 in waist circumference, mean (Waist circumference; 1.5 mg once weekly, n=6): -1.4 cm
Change from baseline to week 12 in waist circumference, individual (Waist circumference; 1.5 mg once weekly, n=6): -0.5 cm and -1.5 cm and -2.6 cm and -4.9 cm and 1.5 cm
Change from baseline to week 12 in LDL cholesterol ([4]; Dulaglutide group): -0.32 mmol/L
Change from baseline to week 12 in total cholesterol ([4]; Dulaglutide group): -0.58 mmol/L
Change from baseline to week 12 in triglycerides ([4]; Dulaglutide group): -0.58 mmol/L
Change from baseline to week 12 in BMI (Body-mass index (BMI); Dulaglutide group): -0.19 kg/m2
